Test results: ChEMBL document CHEMBL1128932, “Liposome-like fucopeptides as sialyl lewis X mimetics” (Bioorg Med Chem Lett, 1996)

biological target: T1, E-selectin (Homo sapiens, UniProt P16581); assay: Ability to inhibit sialyl Lewis X binding to Selectin E was determined
T1 sequence (P16581 whole entry): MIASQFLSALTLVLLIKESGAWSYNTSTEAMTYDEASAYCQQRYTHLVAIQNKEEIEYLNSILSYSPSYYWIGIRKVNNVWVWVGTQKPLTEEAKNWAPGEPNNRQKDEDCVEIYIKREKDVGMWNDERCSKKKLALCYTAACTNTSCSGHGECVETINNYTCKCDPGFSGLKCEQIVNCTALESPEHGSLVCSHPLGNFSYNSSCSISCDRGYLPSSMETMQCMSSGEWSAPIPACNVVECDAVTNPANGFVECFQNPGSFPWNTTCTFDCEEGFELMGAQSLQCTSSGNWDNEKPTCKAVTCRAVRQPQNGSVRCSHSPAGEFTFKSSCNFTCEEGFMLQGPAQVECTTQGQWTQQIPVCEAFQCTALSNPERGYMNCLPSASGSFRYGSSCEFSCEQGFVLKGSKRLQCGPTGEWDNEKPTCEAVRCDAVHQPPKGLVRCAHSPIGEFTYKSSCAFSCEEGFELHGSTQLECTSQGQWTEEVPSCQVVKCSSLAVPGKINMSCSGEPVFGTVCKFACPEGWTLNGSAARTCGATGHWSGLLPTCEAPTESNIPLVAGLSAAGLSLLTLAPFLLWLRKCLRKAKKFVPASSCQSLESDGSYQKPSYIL

IC50 [µM] | Structure (SMILES)
500 | CC(=O)N[C@H]1[C@H]([C@H](O)[C@H](O)CO)O[C@@](O[C@H]2[C@@H](O)[C@@H](CO)O[C@@H](O[C@@H]([C@H](O[C@@H]3O[C@@H](C)[C@@H](O)[C@@H](O)[C@@H]3O)[C@H](C=O)NC(C)=O)[C@H](O)CO)[C@@H]2O)(C(=O)O)C[C@@H]1O [SIALYL LEWIS X]

biological target: T1, E-selectin; assay: Inhibitory activity against Selectin E

Structure (SMILES) | IC50 [µM]
CCOC(=O)[C@@H](NC(=O)[C@@H]1[C@@H](O)[C@@H](O)CN1C(=O)CCCC(=O)O)[C@@H](C)O[C@@H]1O[C@@H](C)[C@@H](O)C(O)C1O (some centres not stated) | 50
C[C@@H]1O[C@@H](O[C@@H]2CCCC[C@H]2NC(=O)[C@@H]2[C@@H](O)[C@@H](O)CN2C(=O)CCCC(=O)O)C(O)C(O)[C@@H]1O (some centres not stated) | 5000
CCOC(=O)[C@@H](NC(=O)C(CO)(CO)NC(=O)CCCC(=O)O)[C@@H](C)O[C@@H]1O[C@@H](C)[C@@H](O)C(O)C1O (some centres not stated) | 900
CCOC(=O)[C@@H](NC(=O)[C@H](NC(=O)CCCC(=O)O)[C@@H](O)CO)[C@@H](C)O[C@@H]1O[C@@H](C)[C@@H](O)C(O)C1O (some centres not stated) | 500
CCCCCCCCCCCCCCCCOC(=O)CC[C@H](NCCOCCOCCNC(=O)[C@@H](NC(=O)[C@H]1C[C@H](O)CN1C(=O)CCCC(=O)O)[C@@H](C)O[C@@H]1O[C@@H](C)[C@@H](O)C(O)C1O)C(=O)OCCCCCCCCCCCCCCCC (some centres not stated) | 500
CCCCCCCCCCCCCCCCOC(=O)CC[C@H](NC(=O)CNC(=O)[C@@H](NC(=O)[C@H]1C[C@H](O)CN1C(=O)CCCC(=O)O)[C@@H](C)O[C@@H]1O[C@@H](C)[C@@H](O)C(O)C1O)C(=O)OCCCCCCCCCCCCCCCC (some centres not stated) | 500

Other lines, results leading:

IC50 [µM] | Structure (SMILES)
1000 | CCOC(=O)[C@@H](NC(=O)[C@@H]1C[C@H](O)CN1C(=O)CCCC(=O)O)[C@@H](C)O[C@@H]1O[C@@H](C)[C@@H](O)C(O)C1O (some centres not stated)
100 | CCOC(=O)[C@@H](NC(=O)[C@H]1C[C@H](O)CN1C(=O)CCCC(=O)O)[C@@H](C)O[C@@H]1O[C@@H](C)[C@@H](O)C(O)C1O (some centres not stated)
300 | CCOC(=O)[C@@H](NC(=O)[C@@H]1C[C@@H](O)CN1C(=O)CCCC(=O)O)[C@@H](C)O[C@@H]1O[C@@H](C)[C@@H](O)C(O)C1O (some centres not stated)
3000 | CCOC(=O)[C@@H](NC(=O)[C@H]1C[C@@H](O)CN1C(=O)CCCC(=O)O)[C@@H](C)O[C@@H]1O[C@@H](C)[C@@H](O)C(O)C1O (some centres not stated)
100 | CCOC(=O)[C@@H](NC(=O)C1C[C@@H](O)CN1C(=O)CCCC(=O)O)[C@@H](C)O[C@H]1O[C@@H](C)[C@@H](O)C(O)C1O (single isomer, unassigned)
